What was measured:
Test in all cases: Single trichostatin A dose, 144 h follow-up, gene expression by RT-PCR (Example 6)
Type in all cases: cell-based, human
[1] = test system: amniotic fluid-derived cell line; settings: 500 nM once at 0 h
Protocol: (§1) Several cell lines obtained from different amniotic fluid specimens (see Example 14) and pancreas donors (see Example 13) were tested with similar results. Two lines at similar passage number but derived from different amniotic fluid specimens are shown in Table VI-A and Table VI-B for this example. One of these cell lines was also used in examples 2 and 4 above. In addition, this example also contains comparison data in Table VI-C and Table VI-D for a single pancreatic-derived stromal line grown to early and late passage number.
(§2) Amniotic fluid derived cells or pancreatic-derived stromal cells were seeded into 24-well tissue culture plates at a density of 5000/cm^2 and cultured in AMNIOMAX (Invitrogen) or DMEM with 10% FBS, respectively, under standard cell culture conditions until confluent. After the cells reached confluency, amniotic fluid derived cells were treated once at time 0 hours with 500 nM trichostatin A. Pancreas-derived stromal cells were treated once at time 0 hours with 1.25 μM trichostatin A. Samples for RT-PCR were taken daily from zero to six days at the times indicated in Table VI.
(§3) RNA samples were obtained from the treated cultures up to 144 hours after the initial addition of trichostatin A or DMSO. Culture media was removed, the cells were washed with PBS, and RLT lysis buffer containing β-mercaptoethanol (Qiagen) was added. During culture, the medium was not changed nor was freshly prepared trichostatin A added. RNA was purified using the RNeasy Mini Kit (Qiagen), and RNA quantity and quality was determined using a spectrophotometer. cDNA was made using the iScript cDNA synthesis kit (BioRad).
(§4) Samples of 20 ng cDNA were used in each reaction to determine the expression levels of the following genes in amniotic fluid-derived cells: Gata1, HNF-3 beta, Pdx-1, insulin, and Sox17. Similarly, samples of 20 ng cDNA were used in each reaction to determine the expression level of the following genes in pancreatic-derived stromal cells: glucagon, HNF-3 beta, insulin and Pdx-1. Real-Time PCR was performed on the Applied Biosystems 7500, and data was analyzed using the accompanying software according to the methods described in Example 15.
(§5) Real-time PCR amplifcation and quantitative analysis. Unless otherwise stated, all reagents were purchased from Applied Biosystems. Real-time PCR reactions were performed using the ABI PRISM™ 7500 Sequence Detection System. TAQMAN™ FAST UNIVERSAL PCR MASTER MIX™ (ABI, CA) was used with 20 ng of reverse transcribed RNA in a total reaction volume of 20 μl. Each cDNA sample was run in duplicate to allow correction of pipetting errors. Primers and FAM-labeled TAQMAN™ probes were used at concentrations of 200 nM. The level of expression for each target gene was normalized using the pre-developed Applied Biosystem's human glyceraldehyde-3-phosphate dehydrogenase (GAPDH) endogenous control kit. Primers and probes were designed using either ABI PRISM PRIMER EXPRESS™ software or a pre-developed ABI gene analysis kit. For each gene, either one of the primers or the probe were designed to be exon-boundary spanning. This eliminated the possibility of the primers/probe binding to any genomic DNA present. The primer and probe sets are listed as follows: Pdx-1 (Hs00426216), Insulin (Hs00355773), glucagon (Hs00174967), and FoxA2 (HNF 3-beta) (Hs00232764). The remaining primers were designed using the PRIMERS program (ABI, CA). After an initial 95° C. incubation for 20 sec, samples were cycled 40 times in two stages: a denaturation step at 95° C. for 3 sec, followed by an annealing/extension step at 60° C. for 30 sec.
(§6) For each primer/probe set, a cycle time value was determined as the cycle number at which the fluorescence intensity of the PCR reaction reached a specific value in the middle of the exponential region of amplification. An increase in expression of a gene corresponded to a decrease in the number of cycles required for the fluorescence intensity to reach this value.

[2] = test system: second amniotic fluid-derived cell line; settings: 500 nM once at 0 h
Protocol: as §1, §2, §3, §4, §5, §6

[3] = test system: early passage (P5) pancreatic-derived stromal cell line; settings: 1.25 μM once at 0 h
Protocol: as §1, §2, §3, §4, §5, §6

CC(/C=C/C(=O)NO)=C\[C@@H](C)C(=O)c1ccc(N(C)C)cc1 [trichostatin A]
Gata1 gene expression ([1]; 24 hrs): nd (not detectable at >40 cycles by RT-PCR) | HNF (HNF-3 beta) gene expression ([1]; 24 hrs): +++ (detectable at less than 35 cycles by RT-PCR with SE less than 0.9) | Insulin gene expression ([1]; 24 hrs): nd (not detectable at >40 cycles by RT-PCR) | Pdx-1 gene expression ([1]; 24 hrs): + (detectable between 35 cycles and 40 cycles by RT-PCR) | sox17 gene expression ([1]; 24 hrs): +++ (detectable at less than 35 cycles by RT-PCR with SE less than 0.9) | Gata1 gene expression ([1]; 48 hrs): nd (not detectable at >40 cycles by RT-PCR) | HNF (HNF-3 beta) gene expression ([1]; 48 hrs): +++ (detectable at less than 35 cycles by RT-PCR with SE less than 0.9) | Insulin gene expression ([1]; 48 hrs): nd (not detectable at >40 cycles by RT-PCR) | Pdx-1 gene expression ([1]; 48 hrs): nd (not detectable at >40 cycles by RT-PCR) | sox17 gene expression ([1]; 48 hrs): +++ (detectable at less than 35 cycles by RT-PCR with SE less than 0.9) | Gata1 gene expression ([1]; 72 hrs): nd (not detectable at >40 cycles by RT-PCR) | HNF (HNF-3 beta) gene expression ([1]; 72 hrs): + (detectable between 35 cycles and 40 cycles by RT-PCR) | Insulin gene expression ([1]; 72 hrs): + (detectable between 35 cycles and 40 cycles by RT-PCR) | Pdx-1 gene expression ([1]; 72 hrs): nd (not detectable at >40 cycles by RT-PCR) | sox17 gene expression ([1]; 72 hrs): +++ (detectable at less than 35 cycles by RT-PCR with SE less than 0.9) | Gata1 gene expression ([1]; 96 hrs): nd (not detectable at >40 cycles by RT-PCR) | HNF (HNF-3 beta) gene expression ([1]; 96 hrs): nd (not detectable at >40 cycles by RT-PCR) | Insulin gene expression ([1]; 96 hrs): + (detectable between 35 cycles and 40 cycles by RT-PCR) | Pdx-1 gene expression ([1]; 96 hrs): nd (not detectable at >40 cycles by RT-PCR) | sox17 gene expression ([1]; 96 hrs): +++ (detectable at less than 35 cycles by RT-PCR with SE less than 0.9) | Gata1 gene expression ([1]; 120 hrs): nd (not detectable at >40 cycles by RT-PCR) | HNF (HNF-3 beta) gene expression ([1]; 120 hrs): + (detectable between 35 cycles and 40 cycles by RT-PCR) | Insulin gene expression ([1]; 120 hrs): + (detectable between 35 cycles and 40 cycles by RT-PCR) | Pdx-1 gene expression ([1]; 120 hrs): nd (not detectable at >40 cycles by RT-PCR) | sox17 gene expression ([1]; 120 hrs): +++ (detectable at less than 35 cycles by RT-PCR with SE less than 0.9) | Gata1 gene expression ([1]; 144 hrs): nd (not detectable at >40 cycles by RT-PCR) | HNF (HNF-3 beta) gene expression ([1]; 144 hrs): nd (not detectable at >40 cycles by RT-PCR) | Insulin gene expression ([1]; 144 hrs): + (detectable between 35 cycles and 40 cycles by RT-PCR) | Pdx-1 gene expression ([1]; 144 hrs): nd (not detectable at >40 cycles by RT-PCR) | sox17 gene expression ([1]; 144 hrs): +++ (detectable at less than 35 cycles by RT-PCR with SE less than 0.9) | Gata1 gene expression ([2]; 24 hrs): nd (not detectable at >40 cycles by RT-PCR) | HNF (HNF-3 beta) gene expression ([2]; 24 hrs): +++ (detectable at less than 35 cycles by RT-PCR with SE less than 0.9) | Insulin gene expression ([2]; 24 hrs): nd (not detectable at >40 cycles by RT-PCR) | Pdx-1 gene expression ([2]; 24 hrs): + (detectable between 35 and 40 cycles by RT-PCR) | sox17 gene expression ([2]; 24 hrs): +++ (detectable at less than 35 cycles by RT-PCR with SE less than 0.9) | Gata1 gene expression ([2]; 48 hrs): nd (not detectable at >40 cycles by RT-PCR) | HNF (HNF-3 beta) gene expression ([2]; 48 hrs): +++ (detectable at less than 35 cycles by RT-PCR with SE less than 0.9) | Insulin gene expression ([2]; 48 hrs): nd (not detectable at >40 cycles by RT-PCR) | Pdx-1 gene expression ([2]; 48 hrs): nd (not detectable at >40 cycles by RT-PCR) | sox17 gene expression ([2]; 48 hrs): +++ (detectable at less than 35 cycles by RT-PCR with SE less than 0.9) | Gata1 gene expression ([2]; 72 hrs): nd (not detectable at >40 cycles by RT-PCR) | HNF (HNF-3 beta) gene expression ([2]; 72 hrs): + (detectable between 35 and 40 cycles by RT-PCR) | Insulin gene expression ([2]; 72 hrs): + (detectable between 35 and 40 cycles by RT-PCR) | Pdx-1 gene expression ([2]; 72 hrs): nd (not detectable at >40 cycles by RT-PCR) | sox17 gene expression ([2]; 72 hrs): +++ (detectable at less than 35 cycles by RT-PCR with SE less than 0.9) | Gata1 gene expression ([2]; 96 hrs): nd (not detectable at >40 cycles by RT-PCR) | HNF (HNF-3 beta) gene expression ([2]; 96 hrs): + (detectable between 35 and 40 cycles by RT-PCR) | Insulin gene expression ([2]; 96 hrs): ++ (detectable at less than 35 cycles by RT-PCR with SE greater than 0.9) | Pdx-1 gene expression ([2]; 96 hrs): nd (not detectable at >40 cycles by RT-PCR) | sox17 gene expression ([2]; 96 hrs): +++ (detectable at less than 35 cycles by RT-PCR with SE less than 0.9) | Gata1 gene expression ([2]; 120 hrs): nd (not detectable at >40 cycles by RT-PCR) | HNF (HNF-3 beta) gene expression ([2]; 120 hrs): + (detectable between 35 and 40 cycles by RT-PCR) | Insulin gene expression ([2]; 120 hrs): ++ (detectable at less than 35 cycles by RT-PCR with SE greater than 0.9) | Pdx-1 gene expression ([2]; 120 hrs): nd (not detectable at >40 cycles by RT-PCR) | sox17 gene expression ([2]; 120 hrs): +++ (detectable at less than 35 cycles by RT-PCR with SE less than 0.9) | Gata1 gene expression ([2]; 144 hrs): nd (not detectable at >40 cycles by RT-PCR) | HNF (HNF-3 beta) gene expression ([2]; 144 hrs): + (detectable between 35 and 40 cycles by RT-PCR) | Insulin gene expression ([2]; 144 hrs): ++ (detectable at less than 35 cycles by RT-PCR with SE greater than 0.9) | Pdx-1 gene expression ([2]; 144 hrs): nd (not detectable at >40 cycles by RT-PCR) | sox17 gene expression ([2]; 144 hrs): +++ (detectable at less than 35 cycles by RT-PCR with SE less than 0.9) | HNF (HNF-3 beta) gene expression ([3]; 24 hrs): +++ (detectable at less than 35 cycles by RT-PCR with SE less than 0.9) | Insulin gene expression ([3]; 24 hrs): nd (not detectable at >40 cycles by RT-PCR) | Pdx-1 gene expression ([3]; 24 hrs): +++ (detectable at less than 35 cycles by RT-PCR with SE less than 0.9) | glucagon gene expression ([3]; 24 hrs): +++ (detectable at less than 35 cycles by RT-PCR with SE less than 0.9) | HNF (HNF-3 beta) gene expression ([3]; 48 hrs): nd (not detectable at >40 cycles by RT-PCR) | Insulin gene expression ([3]; 48 hrs): nd (not detectable at >40 cycles by RT-PCR) | Pdx-1 gene expression ([3]; 48 hrs): nd (not detectable at >40 cycles by RT-PCR) | glucagon gene expression ([3]; 48 hrs): + (detectable between 35 and 40 cycles by RT-PCR) | HNF (HNF-3 beta) gene expression ([3]; 72 hrs): nd (not detectable at >40 cycles by RT-PCR) | Insulin gene expression ([3]; 72 hrs): nd (not detectable at >40 cycles by RT-PCR) | Pdx-1 gene expression ([3]; 72 hrs): nd (not detectable at >40 cycles by RT-PCR) | glucagon gene expression ([3]; 72 hrs): + (detectable between 35 and 40 cycles by RT-PCR) | HNF (HNF-3 beta) gene expression ([3]; 96 hrs): nd (not detectable at >40 cycles by RT-PCR) | Insulin gene expression ([3]; 96 hrs): nd (not detectable at >40 cycles by RT-PCR) | Pdx-1 gene expression ([3]; 96 hrs): nd (not detectable at >40 cycles by RT-PCR) | glucagon gene expression ([3]; 96 hrs): +++ (detectable at less than 35 cycles by RT-PCR with SE less than 0.9) | HNF (HNF-3 beta) gene expression ([3]; 120 hrs): nd (not detectable at >40 cycles by RT-PCR) | Insulin gene expression ([3]; 120 hrs): nd (not detectable at >40 cycles by RT-PCR) | Pdx-1 gene expression ([3]; 120 hrs): nd (not detectable at >40 cycles by RT-PCR) | glucagon gene expression ([3]; 120 hrs): nd (not detectable at >40 cycles by RT-PCR) | HNF (HNF-3 beta) gene expression ([3]; 144 hrs): nd (not detectable at >40 cycles by RT-PCR) | Insulin gene expression ([3]; 144 hrs): nd (not detectable at >40 cycles by RT-PCR) | Pdx-1 gene expression ([3]; 144 hrs): nd (not detectable at >40 cycles by RT-PCR) | glucagon gene expression ([3]; 144 hrs): nd (not detectable at >40 cycles by RT-PCR)
